For experiment [1], the target named is T1, Adenosine A3 (Homo sapiens, UniProt P0DMS8).
T1 construct: expressed in transfected cells; host or cells: HEK-293 cells
T1 sequence (P0DMS8 1-318): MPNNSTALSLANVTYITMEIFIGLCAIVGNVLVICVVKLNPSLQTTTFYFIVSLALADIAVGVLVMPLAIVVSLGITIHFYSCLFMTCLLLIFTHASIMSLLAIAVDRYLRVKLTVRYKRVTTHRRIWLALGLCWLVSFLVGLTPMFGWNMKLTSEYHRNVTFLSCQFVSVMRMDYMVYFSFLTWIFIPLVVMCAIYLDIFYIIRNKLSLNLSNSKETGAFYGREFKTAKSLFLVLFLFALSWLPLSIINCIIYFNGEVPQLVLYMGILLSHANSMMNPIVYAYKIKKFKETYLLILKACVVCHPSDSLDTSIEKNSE
Briefly: Radioligand binding assay 2, Adenosine A3. The following applies: at 1 μmol/l; human recombinant HEK-293 cells, [125I]AB-MECA; read-out: A3 AR % inhibition of agonist binding. How it is done: (§1) The assays were performed under the conditions described below. The literature references are also provided for each assay:
The adenosine A3 radioligand binding assay used is further described in Salvatore C. A. et al., Proc. Natl. Acad. Sci. USA, 1993, 90, 10365 and is incorporated herein by reference.
(§2) The specific ligand binding to the receptors is defined as the difference between the total binding and the non-specific binding determined in the presence of an excess of unlabelled ligand. The results are expressed as a percent of control specific binding and as percent inhibition of control specific binding obtained in the presence of the test compounds.

The target in experiment [2] is Adenosine A2A (Homo sapiens, UniProt P29274). The experiment is described as follows: Radioligand binding assay 2, Adenosine A2A. More on the design: expressed in transfected cells; host or cells: HEK-293 cells. The following applies: at 1 μmol/l; human recombinant HEK-293 cells, [3H]CGS 21680; read-out: A2A AR % inhibition of agonist binding. On the procedure: as §1
Chain of Adenosine A2A (P29274 whole entry): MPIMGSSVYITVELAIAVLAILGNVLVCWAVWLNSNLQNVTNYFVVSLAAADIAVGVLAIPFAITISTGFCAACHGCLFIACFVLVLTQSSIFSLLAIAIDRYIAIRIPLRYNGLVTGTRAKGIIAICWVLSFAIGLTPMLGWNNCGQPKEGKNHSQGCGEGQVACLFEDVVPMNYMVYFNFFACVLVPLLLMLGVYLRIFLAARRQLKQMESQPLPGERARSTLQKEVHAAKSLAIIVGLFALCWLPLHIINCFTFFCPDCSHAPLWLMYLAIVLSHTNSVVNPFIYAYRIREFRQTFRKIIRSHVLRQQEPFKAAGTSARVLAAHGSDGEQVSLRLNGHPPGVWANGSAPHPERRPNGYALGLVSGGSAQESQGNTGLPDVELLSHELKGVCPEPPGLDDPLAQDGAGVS
The adenosine A2A radioligand binding assay used is further described in Luthin D. R. et al., Mol. Pharmacol., 1995, 47 and is incorporated herein by reference.
as §2

Experiment [3] concerns the target T2, Adenosine A1 (Homo sapiens, UniProt P30542).
T2 sequence (P30542 1-326): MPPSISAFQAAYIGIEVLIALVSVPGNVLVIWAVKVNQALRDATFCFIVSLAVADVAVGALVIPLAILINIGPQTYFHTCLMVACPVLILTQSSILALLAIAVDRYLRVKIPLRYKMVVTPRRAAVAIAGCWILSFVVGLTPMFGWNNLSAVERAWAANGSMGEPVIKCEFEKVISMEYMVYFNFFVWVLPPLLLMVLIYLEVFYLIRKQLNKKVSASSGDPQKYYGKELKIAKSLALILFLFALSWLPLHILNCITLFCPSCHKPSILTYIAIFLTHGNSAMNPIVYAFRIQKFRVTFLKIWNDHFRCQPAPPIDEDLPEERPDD
The experiment is described as follows: Radioligand binding assay 2, Adenosine A1. More on the design: expressed in transfected cells; host or cells: CHO cells. The following applies: at 1 μmol/l; human recombinant CHO cells, [3H]CCPA; read-out: A1 AR % inhibition of agonist binding. How it is done:
as §1
The adenosine A1 radioligand binding assay used is further described in Rivkees S. A. et al., J. Biol. Chem., 1995, 270, 20485 and is incorporated herein by reference.
as §2

The target in experiment [4] is T3, Adenosine A2B (Homo sapiens, UniProt P29275).
T3 construct: expressed in transfected cells; host or cells: HEK-293 cells
T3 sequence (P29275 1-332): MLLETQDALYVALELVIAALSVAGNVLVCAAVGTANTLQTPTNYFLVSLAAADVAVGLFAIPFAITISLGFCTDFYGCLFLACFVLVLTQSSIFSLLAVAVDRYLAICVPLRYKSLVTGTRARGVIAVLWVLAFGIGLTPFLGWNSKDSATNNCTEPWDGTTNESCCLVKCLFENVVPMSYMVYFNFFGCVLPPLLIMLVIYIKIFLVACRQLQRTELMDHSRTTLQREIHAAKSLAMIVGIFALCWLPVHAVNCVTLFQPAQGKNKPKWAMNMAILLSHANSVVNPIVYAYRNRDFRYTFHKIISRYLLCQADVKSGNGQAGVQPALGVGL
Briefly: Radioligand binding assay 2, Adenosine A2B. The following applies: at 1 μmol/l; human recombinant HEK-293 cells, [3H]MRS 1754; read-out: A2B AR % inhibition of agonist binding. On the procedure:
as §1
The adenosine A2B radioligand binding assay used is further described in Stehle J. H. et al., Mol. Endocrinol., 1992, 6, 384 and is incorporated herein by reference.
as §2

In experiment [5] the test system is Reserpine induced catalepsy. Briefly: Acute Reserpine induced catalepsy test. The format is in vivo, rat. The following applies: vs only Reserpine-treated animals. On the procedure: (§3) Animals were administered with Reserpine or CGS-21680 according to methods known to the skilled person in the art. These models and procedures are e.g. described by Ferré S. et al., Neurosci. Let., 1991, 130, 162; Ferré S. et al., Neuroscience, 1992, 51, 501; Kafka S. H. et al., Eur. J. Pharmacol., 1996, 295, 147; Rimondini R. et al., Neuropsychopharmacology, 1997, 17, 82 and are herein incorporated by reference. In the acute CGS-21680 induced catalepsy model (CGS model) the test compounds (TC, compounds according to the present invention) and CGS-21680 (i.p. 2 mg/kg) were administered 60 minutes before the start of the catalepsy bar measurement and behavioural testing described below (see also FIG. 1). In the acute Reserpine induced catalepsy model (RES model Resperine (subcutaneously, 3 mg/kg) was injected 24 h prior to the test compound application. Catalepsy bar measurement took place 60 minutes after test compound application (see FIG. 1). Test compounds were administered i.p. in DMSO in following doses (mg/kg): 0.1, 0.3, 1, 3, 10.
(§4) Dimethylsulfoxide (DMSO) was used as vehicle for the test compounds and Reserpine. Reserpine was dissolved in DMSO in a concentration of 3 mg/ml. A 10% (w/v) Cyclodextrin solution was used as vehicle for CGS-21680. CGS 21680 was dissolved in 10% (w/v) Cyclodextrine in a concentration of 2 mg/ml.
Apomorphine was used as a reference compound in the Reserpine induced catalepsy model. Apomorphine injection solution was diluted with purified water to a concentration of 0.3 mg/ml. The solution was administered subcutaneously (s.c.) in a volume of 1 ml/kg (0.3 mg/kg) 20 minutes before the begin of testing after Reserpine pre-treatment (25 hours prior to testing).
The catalepsy bar after Reserpine administration was measured (CAT) as follows: The rat was placed with its forepaws on a log of wood. […] The animal was tested for three trials and the time for each trial was noted. The following parameters were calculated: maximum time to descend (s) and median time to descend (s). […]
(§5) All statistical tests were performed two tailed with a value of p<0.05 considered as significant.
(§6) To assess the effects of CGS-21680 and Reserpine pre-treatment compared to vehicle treated controls statistical comparisons between the test groups were performed using a U test statistic.
To assess the effects of test compounds on CGS-21680 and Reserpine pre-treated animals correlation analyses including animals from test groups and the respective test compound-treated groups were performed.
Additionally, parametric and non-parametric comparisons for the median catalepsy measure were performed to assess the reliability of the method. In case of parametric testing a GLM analyses was performed including animals from a control group (only vehicle treated animals) and the respective test compound-treated groups with dose as a categorical factor. In case of a significant result, a Dunnett's post hoc test was performed between the according test compound groups and a control group as reference group. In case of non-parametric testing a Kruskal-Wallis H-test was performed including animals from a control group and the respective test compound groups. In case of a significant result single U-test comparisons were performed between a control group and the groups treated with different doses of the test compound.

Experiment [6] has as its target T4, A2A adenosine receptors from rat striatum (Rattus norvegicus, UniProt P30543).
T4 construct: A2A adenosine receptors from rat striatum; from tissue; host or cells: rat striatum
The experiment is described as follows: Sodium chloride-shift experiment. Type of experiment: binding. The following applies: for Sodium Chloride-Shift Ki (+NaCl)/Ki (−NaCl): ratio. How it is done:
The compounds were tested in a sodium chloride-shift experiment of whether they are functionally coupled to A2A adenosine receptors from rat striatum. […] The presence of a relatively high concentration of sodium chloride should not influence the affinity of the antagonists. However, the affinity of A2A AR agonists should be attenuated and therefore lead to an elevated IC50-value. […] This confirms the A2A-antagonistic function of the compounds. (Gao et al, Biochem. Pharmacol., 2000, 60, 669, herein incorporated by reference).

Experiment [7] relates to CGS-21680 induced catalepsy. The experiment is described as follows: Acute CGS-21680 induced catalepsy test. The format is in vivo, rat. The following applies: vs only CGS-21680-treated animals. On the procedure: as §3, §4
Caffeine was used as a reference compound in the CGS-21680 induced catalepsy model. A caffeine solution was prepared with water for injection purposes to a concentration of 30 mg/ml. The solution was administered intraperitoneally in a volume of 1 ml/kg (30 mg/kg) 30 minutes before the beginning of testing and after CGS-21680 pre-treatment (1 hour prior to testing).
The catalepsy bar after CGS-21680 administration was measured (CAT) as follows: The rat was placed with its forepaws on a log of wood. […] If the animal descended faster than 1 second, the trial was regarded as invalid. If more than 20 trials were rated as invalid, the values of all uncompleted trials were noted as 0. The animal was tested until five trials had been completed and the time for each trial was noted. Only the values of the last three trials were used for the analysis. The following parameters were calculated: maximum time to descend (s) and median time to descend (s).
Behavioural observation (BO) included the measurement of the body tone, inclined plane and grip strength.
The rat is taken in the hand of the observer and the animal's body tone is rated as normal, soft or hard. The rating is performed immediately after taking the animal from its home cage before performance of catalepsy testing. The following parameters were calculated: mean occurrence of hard body tone and mean occurrence of soft body tone.
The rat is horizontally placed to an inclined plane for a maximum time of 30 seconds. Time to reach bottom or top is measured. […] The test is performed after catalepsy testing. Time to leave the inclined plane(s) was measured.
The rat is put on a grip and the observer pulls the animal back on his tail. The strength (fore paws and hind paws) by which it holds on the grid is scored as grasping and pulling, grasping without pulling or no grasping. The test is performed after the inclined plane test. The following parameters were calculated: mean score of fore paw grip strength and mean score of hind paw grip strength.
as §5, §6
To assess the effects of test compounds on CGS-21680 and Reserpine pre-treated animals correlation analyses including animals from test groups and the respective test compound-treated groups were performed. […]

The mark [8] stands for this setting: Ki (+100 mM NaCl) rA2A rat striatum [3H] MSX-2 (n = 3), +100 mM NaCl.
Setting [9] is: Ki rA2A rat striatum [3H] MSX-2 (n = 3), without NaCl.

Structures are written as SMILES.

Experimental findings from US20080221134A1, “8-ALKYNYLXANTHINES AND DERIVATIVES” (priority 2006, published 2008) are described below.

T4 sequence (P30543 whole entry): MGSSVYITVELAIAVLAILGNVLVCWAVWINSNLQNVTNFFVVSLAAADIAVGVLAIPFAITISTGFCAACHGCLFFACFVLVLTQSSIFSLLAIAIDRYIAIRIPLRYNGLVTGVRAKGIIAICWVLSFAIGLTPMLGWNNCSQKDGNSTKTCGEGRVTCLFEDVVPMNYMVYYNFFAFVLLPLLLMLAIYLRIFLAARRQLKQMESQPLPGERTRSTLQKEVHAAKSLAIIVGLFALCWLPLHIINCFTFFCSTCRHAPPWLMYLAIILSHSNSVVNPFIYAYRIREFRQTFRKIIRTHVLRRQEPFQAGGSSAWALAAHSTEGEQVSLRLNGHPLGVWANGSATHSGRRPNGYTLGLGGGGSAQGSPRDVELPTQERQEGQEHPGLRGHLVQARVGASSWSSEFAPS

Turning to `C#CCn1c(=O)c2c(nc(C#Cc3cccc(OC)c3)n2C)n(CCCO)c1=O` [drawing 611], the inhibition – broadly, the percentage by which the read-out fell short of the control – at 1 µM in experiment [1] is 37%; in experiment [2], 93%; in experiment [3], 41%; in experiment [4], 6%.
Consider `CN1CCc2cccc3c2[C@H]1Cc1ccc(O)c(O)c1-3` [apomorphine, Apomorphine, reference compound], for which, in experiment [5], the “maximum catalepsy values after Reserpine treatment” value was “decreased” and the “median catalepsy values after Reserpine treatment” value was “decreased”.
In the case of `C#CCn1c(=O)c2c(nc(C#Cc3cccc(OC)c3)n2C)n(C)c1=O` [drawing 614], the values for the Ki in experiment [6] (setting [8]) and in experiment [6] (setting [9]) were 33.2 ± 9.9 nM and 30.9 ± 8 nM, respectively. Besides, the “Sodium Chloride-Shift Ki (+NaCl)/Ki (−NaCl)” value in experiment [6] is 0.97 ± 0.03.
In the case of `C#CCn1c(=O)c2c(nc(C#Cc3ccc(OC)c(OC)c3)n2C)n(C)c1=O` [drawing 609], the inhibition at 1 µM was 16% in experiment [1], 85% in experiment [2], 10% in experiment [3] and 19% in experiment [4].
For `C#CCn1c(=O)c2c(nc(C#Cc3cccc(C)c3)n2C)n(CCCO)c1=O` [drawing 613], in that order: 54%, 92%, 43% and 17%.
As to `C#CCn1c(=O)c2c(nc(C#Cc3cccc(Cl)c3)n2C)n(C)c1=O` [drawing 616], the values for the Ki in experiment [6] (setting [8]) and in experiment [6] (setting [9]) were 39.5 ± 13.1 nM and 46 ± 9 nM, respectively. Moreover, in experiment [6], the “Sodium Chloride-Shift Ki (+NaCl)/Ki (−NaCl)” value is 0.82 ± 0.13.
In the same order, the values of `C#CCn1c(=O)c2c(nc(C#Cc3cccc(C)c3)n2C)n(C)c1=O` [drawing 615] are 53.1 ± 5.9 nM, 43.4 ± 11.6 nM and 1.19 ± 0.16.
Turning to `C#CCn1c(=O)c2c(nc(C#Cc3ccc(OC)c(OC)c3)n2C)n(CC)c1=O` [drawing 608], the inhibition at 1 µM in experiment [1] was 38%; in experiment [2], 95%; in experiment [3] it was 4%; in experiment [4], 14%.
As for `Cn1c(=O)c2c(ncn2C)n(C)c1=O` [caffeine, 1,3,7-trimethylxanthine, reference compound], in experiment [7], the “hard body tone after CGS-21680 treatment” value was “increased”, the “maximum catalepsy values after CGS-21680 treatment” value was “significantly decreased”, the “median catalepsy values after CGS-21680 treatment” value is reported as “significantly decreased” and the “soft body tone after CGS-21680 treatment” value is recorded as “decreased”.
For the compound `C#CCn1c(=O)c2c(nc(C#Cc3cccc(OC)c3)n2CC#C)n(C)c1=O` [drawing 610], the inhibition at 1 µM in experiment [1] worked out at 37%; in experiment [2] it was 86%; in experiment [3], 24%; in experiment [4], 22%.
Turning to `C#CCn1c(=O)c2c(nc(C#Cc3cccc(OC)c3)n2C)n(C)c1=O` [drawing 607], the inhibition at 1 µM worked out at 24% in experiment [1], 81% in experiment [2], 5% in experiment [3] and 19% in experiment [4].
